Assay results taken from US12366579B2, “Sulfur-heterocycle exchange chemistry and uses thereof” (University of Virginia Patent Foundation, priority 2019, dated 2025).

Assays:
[1] = biological target: T1, recombinant GSTP1 lysates (Homo sapiens, UniProt P09211); test: GSTP1 biochemical substrate assay (GSH conjugation to BDNB); conditions: inhibitor 30 min at 37° C.; n=3; read-out: IC50, in vitro potency against GSTP1 by GSH substrate assay
T1 construct: FLAG (C); host or cells: HEK293T, transient transfection; soluble proteome used unpurified
T1 sequence (P09211 whole entry): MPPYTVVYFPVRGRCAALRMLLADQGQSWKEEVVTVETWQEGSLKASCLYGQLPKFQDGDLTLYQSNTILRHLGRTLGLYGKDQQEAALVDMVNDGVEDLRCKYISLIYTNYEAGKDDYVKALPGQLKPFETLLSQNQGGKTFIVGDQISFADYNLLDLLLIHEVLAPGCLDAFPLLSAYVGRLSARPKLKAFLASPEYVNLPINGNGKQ
Experimental: GSTP1 Biochemical Substrate Assay
Recombinant GSTP1-HEK293T soluble cell proteomes were diluted to 1 mg ml^−1 in assay buffer (100 mM NaH2PO4, pH 7.0). Samples were treated with inhibitor at indicated concentrations for 30 min at 37° C. GSH stock solution (250 mM in water) was diluted to 4 mM in assay buffer and 25 μl of diluted GSH solution was added to each sample. A substrate stock solution of 75 mM 1-bromo-2,4-dinitrobenzene […] in ethanol was diluted to 2 mM in assay buffer. Samples (25 μl) were aliquoted into a 96-well plate and spun briefly via centrifuge. Next, 50 μl of 2 mM BDNB was added to each well and the reaction was monitored in kinetic mode by measuring absorbance at 340 nm for 10 min on a BMG Labtech CLARIOstar plate reader (BMG Labtech, Cary, North Carolina, United States of America).

GSTP1 Y8 = biological target: T2, GSTP1 Y8 (Homo sapiens, UniProt P09211); test: Quantitative chemical proteomics of live SILAC DM93 cells treated with SuTEx fragments; assay type: cell-based
T2 construct: endogenous in cells; host or cells: DM93 melanoma cells (SILAC)
T2 sequence (P09211 whole entry, the tested form may be a part): as the sequence (P09211 whole entry) above
Experimental: Live Cell Evaluation of Sulfonyl-Triazole Fragments
Cells grown to ˜90% confluency in 10 cm plates were treated with DMSO vehicle or SuTEx fragment (10 μl of 1,000× stock) in serum-free media for the indicated concentrations and times at 37° C. with 5% CO2. After treatment, cells were washed with cold PBS twice before collection and preparation for gel-based chemical proteomic evaluation as described above. For LC-MS studies, protein concentrations were normalized to 2.3 mg ml^−1 and 432 μl (for 1 mg final protein amount) were used for sample preparation as detailed below.
(§1) Heavy and light proteomes (432 μl of each) were diluted to 2.3 mg ml^−1 in PBS and sample aliquots (432 μl) were treated with SuTEx fragment at the indicated concentrations (5 μl, 100× stock in DMSO), mixed gently and incubated for 30 min at 37° C. Samples were then treated with HHS-482 (5 μL, 5 mM stock in DMSO) for 30 min at 37° C. Probe-modified proteomes were conjugated to desthiobiotin-PEG3-azide followed by enrichment of probe-modified peptides for nano-electrospray ionization-LC-MS/MS analyses as previously described^57.
Next, SILAC DM93 cells were treated with JWB152 or JWB198 to determine whether these SuTEx fragments could ligand Y8 of endogenous GSTP1 in living systems (50 μM compound, 1.5 hr, 37° C.). Cells were pretreated with DMSO vehicle or SuTEx fragments followed by cells lysis, HHS-482 labeling of proteomes, and quantitative chemical proteomics.

human GSTP1 (hGSTP1) = biological target: T3, human GSTP1 (hGSTP1) (Homo sapiens, UniProt P09211); test: Gel-based competitive chemical proteomic screen with HHS-482, recombinant hGSTP1-HEK293T soluble proteomes; assay type: binding; conditions: fragment 50 μM, 30 min, 37° C.
T3 construct: FLAG (C); host or cells: HEK293T, transient transfection; soluble proteome used unpurified
T3 sequence (P09211 whole entry, the tested form may be a part): as the sequence (P09211 whole entry) above
Experimental: Gel-Based Chemical Proteomic Assay
Cell pellets were lysed in PBS and fractionated (100,000×g, 45 min, 4° C.) to generate soluble and membrane fractions. Protein concentrations were determined using Bio-Rad DC protein assay (Bio-Rad Laboratories, Inc., Hercules, California, United States of America), and adjusted to 1 mgml^−1 in PBS. Proteome samples (49 μl aliquots) were treated with DMSO vehicle or indicated concentration of SuTEx fragment (1 μL, 50× stock in DMSO) for 30 min at 37° C. Samples were then treated with HHS-482 probe (1 μL, 2.5 mM stock in DMSO) for 30 min at 37° C. Probe labeled samples were conjugated to rhodamine-azide (1 μL, 1.25 mM stock; final concentration of 25 μM) by copper-catalyzed azide-alkyne cycloadditions (CuAAC) for 1 h at room temperature followed by SDS-PAGE and in-gel fluorescence scanning as previously described^57.

DM93 soluble proteomes = test: Proteome-wide competitive chemical proteomics of SuTEx fragments vs HHS-482; assay type: binding, human; conditions: fragment 50 μM, 30 min, 37° C.
Experimental: as §1
The chemical proteomic method for functional tyrosine profiling^72 was tailored to investigate AG/LG effects on SuTEx fragment reactivity in complex proteomes. In brief, isotopically light and heavy soluble proteomes from DM93 melanoma cells cultured by stable isotopic labeling by amino acids in cell culture (SILAC^80) media were used for quantitative liquid chromatography-mass spectrometry (LC-MS) studies. Light and heavy DM93 proteomes were treated with dimethyl sulfoxide (DMSO) vehicle or SuTEx fragment (50 μM, 30 min, 37° C.), respectively, followed by labeling with the tyrosine-reactive probe HHS-482 described hereinabove (50 μM, 30 min, 37° C.) and copper-catalyzed azide-alkyne cycloaddition (CuAAC) conjugation of a desthiobiotin-azide enrichment tag. Proteomes were digested with trypsin protease, HHS-482-modified peptides enriched by avidin chromatography and analyzed by high-resolution LC-MS/MS and bioinformatics as described hereinabove.
To evaluate substituent effects on proteome activity, reactivity profiles of each respective SuTEx fragment were compared across >1500 total distinct HHS-482-modified tyrosine sites from >650 detected proteins. Fragments were screened across independent biological replicates (n=2-3) and high-quality tyrosine site annotations were identified by detection in at least a single biological replicate from each fragment dataset, probe-specific enrichment (HHS-482 probe/DMSO SILAC ratio (SR)>5), and quality control confidence criteria of ≥300 Byonic score^31, […] protein false discovery rate (FDR), and ≤5 ppm mass accuracy in order to minimize the potential for false positives^72. SILAC ratios (SR) from competitive studies (Light-DMSO/Heavy-fragment) were used to identify fragment-competed tyrosine residues as sites showing >75% reduction in enrichment by HHS-482 compared with DMSO vehicle control (i.e. liganded tyrosines, SR>4). In total, 305 liganded tyrosines on 213 distinct proteins were identified, corresponding to ˜30% and ˜44% of total quantified tyrosines and proteins, respectively. […]

[2] = HPLC assay, p-cresol reactivity against a sulfonyl probe mixture; assay type: physicochemical; conditions: TMG 2.2 equivalents, 0° C.
Experimental: The following reagents were prepared and kept at 0° C. prior to use: 0.1 M solution of caffeine in acetonitrile (ACN), 1.0 M solution of n-butylamine, p-cresol, tetramethylguanidine (TMG), acetic acid in ACN, and 10 mM solution of the probes in a mixture of DMF-ACN (v/v=10:90) are made.
(i) p-Cresol reactivity against a probe mixture: A solution of p-cresol (16.5 μmol, 3.3 eq) was premixed with 1.1, 2.2, or 3.3 eq of TMG. To initiate the reaction, the p-cresol/TMG solution was added to a sulfonyl probe mixture of HHS-475/HHS-482/HHS-SF-1 (500 μL, 5 μmol, 1.0 eq each) and the reaction was kept at 0° C. The reaction progress was monitored by taking out a 50.0 μL aliquot of the reaction mixture at various time points followed by addition of a 10 μL quenching solution of acetic acid (0.5 M final, 5.0 μmol) and the internal caffeine standard (0.05 M final, 0.5 μmol). Sample (1.0 μL) was injected and analyzed by reverse-phase HPLC on a Shimadzu 1100 Series spectrometer (Shimadzu, Kyoto, Japan) with UV detection at 254 nm. Reaction progress was evaluated by monitoring consumption of sulfonyl probes because all probes generate a shared p-cresol and n-butylamine product. Chromatographic separation was performed using a Phenomenex Kinetex C18 column (2.6 μm, 50 mm×4.6 mm, Phemonenex, Torrance, California, United States of America). […]

[3] = system: HEK293T soluble proteomes; test: LC-MS chemical proteomics of probe-modified sites in cell proteomes; assay type: binding, human
Experimental: Proteomes were diluted to 2.3 mg/mL in PBS and sample aliquots (432 μL) were treated with sulfonyl-triazole or -fluoride probes at the indicated concentrations (5 μL, 100× stock in DMSO), mixed gently and incubated for 1 h at room temperature. Probe-modified proteomes were subjected to CuAAC conjugation to desthiobiotin-PEG3-azide (10 μL of 10 mM stock in DMSO; final concentration of 200 μM) using TCEP (10 μL of fresh 50 mM stock in water; 1 mM final concentration), TBTA ligand (33 μL of a 1.7 mM 4:1 t-butanol/DMSO stock, 100 μM final concentration), and CuSO4 (10 μL of 50 mM stock, 1 mM final concentration). Samples were mixed by vortexing and then incubated for 1 h at room temperature. Excess reagents were removed by chloroform-methanol extraction as previously described^51. Protein pellets were re-suspended in 500 μL of 6M urea/25 mM ammonium bicarbonate followed by DTT reduction and IAA alkylation as previously described^5. Excess reagents were removed by chloroform/methanol extraction as described above, and the protein pellet was re-suspended in 500 μL of 25 mM ammonium bicarbonate and then digested to peptides using trypsin/Lys-C (7.5 μg in 15 μL of ammonium bicarbonate, sequencing grade from Promega, Madison, Wisconsin, United States of America) was added to the mixture and incubated for 3 hrs at 37° C. Probe-modified peptides were enriched by avidin affinity chromatography, eluted, and prepared for LC-MS analysis as previously described^51.
A top 10 data-dependent acquisition MS method was used.
Sulfonyl-probe modifications of tyrosine, lysine, and other amino acids were included as a variable (common) modification of +635.27374 Da. […] A Byonic score of 300 was applied for a more inclusive initial evaluation of the search results and thereby consider more possible probe-modified sites. MS1 and MS2 spectra corresponding to the highest-scoring tyrosine- and lysine (internal or non-C terminal)-modified sequences (˜50-100 peptides) were manually verified. […] Distinct peptides containing probe-modified amino acid residues (termed sites) were determined by identifying all unique razor protein and site combinations across all of the proteomes tested.
To compare amino acid residues modified by sulfonyl probes, protein and peptide identifications were accomplished as described above with variable (common) modification of +635.27374 Da on the following amino acid residues: cysteine, aspartic acid, glutamic acid, histidine, lysine, methionine, asparagine, glutamine, arginine, serine, threonine, tryptophan, and tyrosine. For these amino acid comparisons, carbamidomethylation (+57.021464 Da) of cysteines was searched as a variable/common modification to allow for the potential of probe modification on cysteines. Comparisons of probe-modified sites across all probes and cell lines tested were performed using the R package ggplot2 (online at tidyverse.org). Venn diagrams for comparisons were generated using the VennDiagram R package^52.
Proteomes were digested with trypsin protease and desthiobiotin-modified peptides enriched by avidin affinity chromatography, released, and analyzed by high-resolution liquid chromatography-mass spectrometry (LC-MS). Probe-modified peptide-spectrum matches (PSMs) that met a quality control confidence criteria of ≥300 Byonic score^31 and ≤5 ppm mass accuracy were selected for further manual evaluation.

SMILES | IC50 [1] [µM] | blockade of HHS-482 labeling of native GSTP1 Y8 in live cells (GSTP1 Y8; 50 μM compound, 1.5 hr, 37° C.) [%] | SILAC ratio (SR) at other GSTP1 probe-modified sites (GSTP1 Y8; Y50, Y64, Y80, Y119, and Y199, 50 μM) | block of HHS-482 labeling of GSTP1 (human GSTP1 (hGSTP1)) | liganded tyrosine frequency (SR>4) (DM93 soluble proteomes) [%] | time to consumption of probe by p-cresol [2] [min] | fold reduction in total number of modified sites compared with HHS-465 and HHS-475 [3] [fold] | tyrosine specificity, Y/K ratio of modified sites ([3]; LC-MS chemical proteomics, FIG. 4A)
O=S(=O)(c1ccc2ccccc2c1)n1cnc(-c2ccncc2)n1 [JWB198, 4-(1-(Naphthalen-2-ylsulfonyl)-1H-1,2,4-triazol-3-yl)pyridine] | 16 | ~70 | ~1 | block HHS-482 labeling to levels comparable with Y8F mutant | 1.3 | – | – | –
C#CCNC(=O)c1ccc(S(=O)(=O)F)cc1 [HHS-SF-1, 4-(Prop-2-yn-1-ylcarbamoyl)benzenesulfonyl fluoride, reference compound] | – | – | – | – | – | > 90 | ~4 | 2.3
